According to patent US12029738B2, “Antiproliferative compounds and methods of use thereof” (Celgene Corporation, priority 2017, dated 2024):
Values joined by “and” are separate entries in the source; they are usually repeats but may differ in a detail not shown here. Identical values can stand only once. Like-named read-outs stand apart in the source and are kept apart here.

Experiments:
[1] = system: NCI-H929-1051 (lenalidomide-resistant); assay: Cell proliferation assay (CTG, 120 h); type: cell-based, human; conditions: for IC50: Homo sapiens, 120 h
Experimental: Cell Culture Materials: Human multiple myeloma cell lines were purchased from the vendors and cultured at 37° C. with 5% CO2 in the media as indicated in Table 1. Lenalidomide and pomalidomide resistant cell lines were obtained by methods as generally described previously (Lopez-Girona et al Leukemia 2012; 26(11): 2335). All cell lines were kept in log phase, and cell density and viability were monitored by trypan blue exclusion using the Vi-cell XR cell viability analyzer (Beckman Coulter, Brea, CA).
Preparation of Solutions of Test Article: Compounds were plated into black 384-well plates (Corning Inc.) to a final DMSO volume of 0.1% assuming a maximal volume of 50 μL. A 10-point dose response starting at 10 μM with a 1:3 dilution was printed in duplicate by acoustic dispense using the EDC ATS-100 platform. Alternatively, the 10-point dose response starting at 10 μM with a 1:10 dilution, or starting at 100 nM with a 1:3 dilutions were used.
Cell Proliferation Assays: The effect of compounds on the proliferation/viability of the hematological cell lines (Table 1), was assessed after 120 h incubation using CTG (Promega), according to manufacturer's instructions. Hematological cell lines were dispensed into compound plates by a Multidrop Combi Reagent Dispenser (Thermo Scientific, Waltham, MA) at a concentration of 0.1×10^6 cells per mL in a 50 μL total volume. At 120 h, 25 μL per well of CTG was dispensed by a Multidrop Combi Reagent Dispenser and adenosine triphosphate (ATP) release by viable cells was measured as relative luminescence units after 30 minutes using the Envision platform.
Results. […] The MM cell lines selected for this study were lines sensitive and resistant to lenalidomide and/or pomalidomide (Table 1), two agents used in the clinic to treat myeloma patients. Proliferation was assessed using the CellTitre-Glo© assay. Results for cultures incubated with the compounds were normalized to results for control cultures for each cell line. The IC50 for inhibition of cell growth by the compounds was determined for each cell line using ActivityBase software.
Combination with Dexamethasone. The activity of pomalidomide with that of Compound 2 alone or in combination with dexamethasone was evaluated across a panel of MM cell lines. […] Table 3 summarizes the potency (IC50) of the single agent and dexamethasone combination studies performed in the H929-1051 cell line. […] Each IC50 is the average from at least 3 independent experiments. Proliferation was monitored on Day 5 using Cell Titer-Glo.

dopamine D2S receptor = target: T1, dopamine D2S receptor (Homo sapiens, UniProt P14416); assay: Dopamine D2S receptor agonist assay (impedance, HEK-293); type: cell-based
T1 construct: host or cells: HEK-293 cells (membrane homogenates)
Experimental: (§1) α1 Adrenergic and Dopamine D2 Receptors. Methods: Binding and functional assays for α1 adrenergic and dopamine D2 receptors were performed by Eurofins Cerep according to their methods.
Agonist activity. The agonism of test compounds on the dopamine D2S receptor was assessed using human receptor-transfected HEK-293 cells. Agonist activity was determined by measuring compound effect on impedance modulation. In these experiments, HEK-293 cells were incubated in duplicate at 28° C. with test article. Compound A was tested at 0.01-30 μM. […] Dopamine (3 μM) was used as an agonist control. Impedance measurements were monitored for 10 minutes after ligand addition using cellular dielectric spectroscopy. The EC50 was defined as the concentration causing a half-maximum response, compared to the control agonist (dopamine) response.

α1B adrenergic receptor = target: T2, α1B adrenergic receptor (Homo sapiens, UniProt P35368); assay: α1B adrenergic receptor antagonist assay (cAMP, CHO cells); type: cell-based
T2 construct: host or cells: CHO cells
T2 sequence (P35368 1-520): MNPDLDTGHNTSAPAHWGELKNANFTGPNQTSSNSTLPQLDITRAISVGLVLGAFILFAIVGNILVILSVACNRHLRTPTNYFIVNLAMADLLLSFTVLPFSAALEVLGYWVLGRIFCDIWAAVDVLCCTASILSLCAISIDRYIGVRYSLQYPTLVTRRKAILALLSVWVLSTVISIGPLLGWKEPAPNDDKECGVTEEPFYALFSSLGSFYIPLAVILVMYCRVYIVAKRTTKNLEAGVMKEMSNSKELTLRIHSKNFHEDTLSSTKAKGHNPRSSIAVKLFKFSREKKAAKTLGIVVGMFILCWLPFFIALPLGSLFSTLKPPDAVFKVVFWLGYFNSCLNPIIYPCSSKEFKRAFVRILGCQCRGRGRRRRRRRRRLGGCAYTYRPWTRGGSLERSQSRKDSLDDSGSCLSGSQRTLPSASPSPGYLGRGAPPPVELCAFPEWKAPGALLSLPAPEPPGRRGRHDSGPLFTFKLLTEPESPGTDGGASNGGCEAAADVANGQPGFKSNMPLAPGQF
Experimental: as §1
Antagonist activity. The antagonistic effects of test compounds on the α1A and α1B adrenergic receptors were measured using human receptor-transfected Chinese hamster ovary (CHO) cells. Antagonist activity was determined by measuring compound effect on agonist (epinephrine)-induced calcium mobilization in the α1A receptor assay or cAMP levels in the α1B receptor assay. In these experiments, CHO cells were incubated in duplicate at room temperature with test article and epinephrine at 3 nM in the α1A receptor assays or at 3000 nM in the α1B receptor assay. Compound A was tested in the α1A receptor assay at 0.01-30 μM. […] Compound 1 and Compound 2 were assayed at 0.03 to 30 μM in the α1A receptor assay and 0.03 to 100 μM in the α1B receptor assay. In the α1A receptor assay, cytosolic calcium levels were measured fluorometrically using the fluorescent probe, Fluo4 Direct. Intracellular cAMP levels in the α1B adrenergic receptor assay were measured by homogenous time-resolved fluorescence (HTRF). The antagonism IC50 was defined as the concentration causing a half-maximum inhibition of control agonist response.

[2] = CTG, read-out: NCI-H929.1051 120 h IC50
[3] = read-out: 0.01 μM Dex Combo IC50, H929-1051, Day 5, in combination with 0.01 μM dexamethasone
[4] = read-out: 0.1 μM Dex Combo IC50, H929-1051, Day 5, in combination with 0.1 μM dexamethasone
[5] = read-out: 1 μM Dex Combo IC50, H929-1051, Day 5, in combination with 1 μM dexamethasone
[6] = H929-1051, Day 5 Cell Titer-Glo, single agent, read-out: Single Agent IC50

T1 sequence (P14416 1-414 isoform P14416-2): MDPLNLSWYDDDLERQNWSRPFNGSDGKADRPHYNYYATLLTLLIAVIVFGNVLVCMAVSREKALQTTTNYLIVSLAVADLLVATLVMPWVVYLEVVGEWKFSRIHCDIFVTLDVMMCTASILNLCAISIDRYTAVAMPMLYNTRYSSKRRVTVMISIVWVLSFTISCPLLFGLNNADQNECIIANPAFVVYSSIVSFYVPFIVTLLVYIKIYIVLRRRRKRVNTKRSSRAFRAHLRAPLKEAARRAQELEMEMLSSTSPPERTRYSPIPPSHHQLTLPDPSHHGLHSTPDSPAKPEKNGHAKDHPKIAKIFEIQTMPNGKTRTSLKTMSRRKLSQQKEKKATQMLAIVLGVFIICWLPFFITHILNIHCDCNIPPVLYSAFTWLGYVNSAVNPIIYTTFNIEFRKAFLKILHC

Row | Compound | IC50 [1, 2] | D2S Agonism EC50 (dopamine D2S receptor; impedance, versus dopamine control) | IC50 (α1B adrenergic receptor) | potency of single agent versus pomalidomide-dexamethasone combination ([1]; H929-1051) | IC50 [1, 3] | IC50 [1, 4] | IC50 [1, 5] | IC50 [1, 6] | EC50 (dopamine D2S receptor) | EC50 (dopamine D2S receptor; impedance, versus dopamine control, read-out: D2S Agonism EC50) | IC50 (α1B adrenergic receptor; epinephrine 3000 nM, cAMP, read-out: Antagonism IC50 α1B)
1 | N#Cc1ccc(N2CCN(Cc3ccc(COc4cccc5c4CN(C4CCC(=O)NC4=O)C5=O)cc3)CC2)c(F)c1 (racemic) [Compound 1, 4-(4-(4-(((2-(2,6-dioxopiperidin-3-yl)-1-oxoisoindolin-4-yl)oxy)methyl)benzyl)piperazin-1-yl)-3-fluorobenzonitrile] | 2.5 nM | Negative | 6900 nM | – | – | – | – | – | – | – | –
2 | N#Cc1ccc(N2CCN(Cc3ccc(COc4cccc5c4CN([C@H]4CCC(=O)NC4=O)C5=O)cc3)CC2)c(F)c1 [Compound 2, (S)-4-(4-(4-(((2-(2,6-dioxopiperidin-3-yl)-1-oxoisoindolin-4-yl)oxy)methyl)benzyl)piperazin-1-yl)-3-fluorobenzonitrile] | 1 nM | – | 2400 nM | 10 fold | 0.41 nM | 0.0429 nM | 0.018 nM | 0.98 nM | > 10000 nM | – | –
3 | O=C1CC[C@H](N2Cc3c(OCc4ccc(CN5CCN(c6ccc(F)cc6F)CC5)cc4)cccc3C2=O)C(=O)N1 [Compound B] | – | – | – | – | – | – | – | – | – | 2700 nM and 1900 nM | 78 nM
4 | Nc1cccc2c1C(=O)N(C1CCC(=O)NC1=O)C2=O (centres unmarked) [Pomalidomide, pomalidomide] | – | – | – | – | 3840 nM | 118 nM | 18.8 nM | > 10000 nM | – | – | –
